According to patent publication US7258999B2, “PTH responsive gene” (Wyeth, priority 2002, dated 2007):

System: PAIGB expression in ROS 17/2.8 cells
Test: Real time PCR of PAIGB expression in ROS 17/2.8 cells
Assay type: cell-based, rat
Conditions: 10 nM
Text: Applicants performed multiplex real time PCR (TaqMan) analysis on previously DNAsed samples using gene specific probe and primers and 18S ribosomal RNA probe and primer sets purchased from Applied Biosystem. (Foster City, Calif.) The samples were DNAsed according to the protocol provided by Ambion (DNA-free kit). TaqMan probe and primers for PAIGB was identify using Primer Express computer program. The sequence for rat PAIGB TaqMan probe was 6FAM-5′[…] (SEQ ID NO: 16) forward and reverse primers were 5′[…] 3′ (SEQ ID NO:17) and 5′ […] 3′ (SEQ ID NO:18) respectively. The final concentrations for probes were 500 nM and 40 nM for PAIGB and 18S ribosomal RNA or GAPDH respectively. The concentrations of the primers were 500 nM for PAIGB forward and reversed primers while 18S primers were 10 and 20 nM for forward and reversed primer respectively or 40 nM for GAPDH primers. Standards for rat samples were made from rat tibia or brain RNA in the range of 250 ng to 0.1 ng, while standards for mouse specific TaqMan were made from mouse brain RNA and human standards from human brain RNA (Clonetech, Palo Alto, Calif.) spanning the same range of concentration. Primers and probes for mouse PAIGB were: forward 5′ […] 3′ (SEQ ID NO:19), reverse, 5′ […] (SEQ ID NO:21). Primers and probes for human PAIGB were: forward 5′ […] 3′ (SEQ ID NO:22), reverse 5′ […] 3′(SEQ ID NO: 24). The Taq-man analysis was done using ABI 7700 Sequence Detector under following conditions: 30 min at 48° C., 10 min at 95° C. and 40 cycles of 15 sec at 95° C. and 60 sec at 60° C. Analysis of real-time PCR analysis was performed using (Sequence Detector, Macintosh) program.
Five cell types were primarily used in our experiments. Rat osteoblast cell line (ROS 17/2.8) that expresses moderate levels of PTH receptor 1 (Rodan et al, Rev. Eukaryotic Gene Expression 1:85-98, 1991) were used to perform in vitro experiments. ROS cells were maintained under standard cell culture conditions: 10% heat inactivated FBS in Dulbecco's Modified Eagle Medium with Nutrient Mixture F-12 (DMEM/F12) media, 1% Penicillin/Streptomycin and 1% Glutamax. Mouse cell line C3H10T½ (ATCC# CCL226) as a representative of mouse osteoprogenitor cell line were maintained in Eagles Minimal Essential Media (EMEM) with the addition of 10% heat inactivated FBS and 1% Penicillin/Streptomycin and 1% Glutamax. UMR106 rat osteoblastic cells (ATCC# CRL1661) were cultured in Dulbecco's Modified Eagle Medium (DMEM) supplemented with 10% heat inactivated FBS, 1% Penicillin/Streptomycin and 1% Glutamax. The U2OS human osteoblastic cells (ATCC# HTB96) were cultured in McCoy's 5A Medium Modified supplemented with 10% FBS, 1% Penicillin/Streptomycin and 1% Glutamax. The human HOB-03-CE6 cell line (Bodine, V. N. P., et. al., J. Cell. Biochem., 65: 368-387,1997) was maintained in phenol red free DMEM/F12 media supplemented with 10% heat inactivated FBS and 1% Penicillin/Streptomycin and 1% Glutamax.
ROS 17/2.8 rat osteoblast cell line that express PTH receptor (˜80000 receptors/cell) were treated with increased doses of PTH: 1 nM, 10 nM, 100 nM and 1000 nM. Real time PCR using rat specific Taq-man probes and primers were used to examine the changes in PAIGB expression with PTH treatment.
Time course of PTH induction of PAIGB expression was examined. ROS 17/2.8_cells were treated with 10 nM PTH and RNA was harvested at 1, 2, 4, 6, 8 and 24 hours post treatment.

human PTH (1-34)
PAIGB message with increasing concentrations (1 nM, 100 nM and 1000 nM): dose-dependent increase
maximal increase of PAIGB expression (4 hours time point): 2.66+/−0.3
effect on PAIGB expression 8 hours post treatment (8 hours): completely abolished
induction of PAIGB expression (data not shown): 6 fold
